The NIST ThermoML archive (doi:10.1021/je700245a)

Assay: xn = mol fraction of the nth substance listed
Conditions: 101 kPa, Liquid

CN(CCO)CCO [N-methyldiethanolamine] + CCO
speed of sound [m/s], Sing-around technique in a fixed-path interferometer
Conditions | 288.15 K | 293.15 K | 298.15 K | 303.15 K | 308.15 K | 313.15 K
x1 = 0.0049 | 1183.1 | 1166 | 1149.2 | 1132.3 | 1114.8 | 1098.8
x1 = 0.0253 | 1201.7 | 1184.9 | 1168 | 1151.2 | 1134.5 | 1117.9
x1 = 0.0524 | 1222.5 | 1205.9 | 1189.3 | 1172.7 | 1156.3 | 1139.8
x1 = 0.102 | 1260.9 | 1244.5 | 1228.1 | 1211.8 | 1195.6 | 1179.5
x1 = 0.1629 | 1301 | 1286 | 1272.9 | 1257.3 | 1241.5 | 1225.8
x1 = 0.2474 | 1353 | 1338 | 1325 | 1310 | 1293 | 1278
x1 = 0.3713 | 1415 | 1399.7 | 1384.6 | 1369.4 | 1354.1 | 1339
x1 = 0.4806 | 1460 | 1444 | 1429.2 | 1414 | 1398.8 | 1383.7
x1 = 0.5506 | 1486 | 1470 | 1457 | 1439 | 1423.8 | 1408.7
x1 = 0.7035 | 1536 | 1520 | 1500 | 1484.3 | 1468.9 | 1453.6
x1 = 0.7916 | 1557 | 1542 | 1522 | 1505.6 | 1490.3 | 1475.1
x1 = 0.8688 | 1573.2 | 1557.7 | 1538 | 1520.8 | 1506.2 | 1491.5
x1 = 0.9415 | 1588.4 | 1572.9 | 1553 | 1535 | 1520.4 | 1506.1
x1 = 1 | 1598.8 | 1583.1 | 1564 | 1546 | 1531 | 1516

mass density [kg/m3]
Conditions | 288.15 K | 293.15 K | 298.15 K | 303.15 K | 308.15 K | 313.15 K
x1 = 0.0049 | 797.34 | 793.08 | 788.79 | 784.48 | 779.2 | 775.41
x1 = 0.0253 | 810.93 | 806.7 | 802.07 | 797.45 | 792.51 | 788.32
x1 = 0.0524 | 826.23 | 822.03 | 817.31 | 812.97 | 807.85 | 803.95
x1 = 0.102 | 855.32 | 850.46 | 845.79 | 841.06 | 835.99 | 831.61
x1 = 0.1629 | 883.86 | 879 | 874.36 | 869.83 | 864.64 | 860.34
x1 = 0.2474 | 916.48 | 911.75 | 907.18 | 902.4 | 897.2 | 892.65
x1 = 0.3713 | 952.15 | 947.5 | 942.7 | 938.24 | 933.17 | 928.65
x1 = 0.4806 | 977.2 | 973.1 | 968.28 | 963.57 | 958.75 | 954
x1 = 0.5506 | 991.1 | 986.7 | 982.08 | 977.52 | 972.75 | 967.98
x1 = 0.7035 | 1013.7 | 1009.24 | 1005.04 | 1000.62 | 996.08 | 991.6
x1 = 0.7916 | 1024.1 | 1019.88 | 1015.3 | 1011.24 | 1006.79 | 1002.49
x1 = 0.8688 | 1032.69 | 1028.4 | 1024.2 | 1019.64 | 1015.81 | 1011.97
x1 = 0.9415 | 1038.68 | 1034.96 | 1031.19 | 1027.42 | 1023.63 | 1019.82
x1 = 1 | 1044.32 | 1040.6 | 1036.83 | 1033.06 | 1029.26 | 1025.45

CCO [ethanol] + OCCN(CCO)CCO
x2 = 0
Conditions | mass density [kg/m3] | speed of sound [m/s]
288.15 K | 793.6 | 1179
293.15 K | 789.35 | 1162
298.15 K | 785.06 | 1144.9
303.15 K | 780.76 | 1128
308.15 K | 776 | 1111.1
313.15 K | 772.03 | 1094.3

CCO [ethanol] + CN(CCO)CCO
Sing-around technique in a fixed-path interferometer, x2 = 0
Conditions | speed of sound [m/s]
288.15 K | 1179
293.15 K | 1162
298.15 K | 1144.9
303.15 K | 1128
308.15 K | 1111.1
313.15 K | 1094.3

x2 = 0
Conditions | mass density [kg/m3]
288.15 K | 793.6
293.15 K | 789.35
298.15 K | 785.06
303.15 K | 780.76
308.15 K | 776
313.15 K | 772.03

OCCN(CCO)CCO [triethanolamine] + CCO
Conditions | mass density [kg/m3] | speed of sound [m/s]
288.15 K, x1 = 0.0075 | 799.61 | 1185.2
288.15 K, x1 = 0.0184 | 808.53 | 1193.4
288.15 K, x1 = 0.0304 | 818 | 1202.1
288.15 K, x1 = 0.0622 | 840.61 | 1225.5
288.15 K, x1 = 0.1385 | 889.41 | 1277
288.15 K, x1 = 0.2275 | 935.37 | 1333.2
288.15 K, x1 = 0.335 | 979.49 | 1397
288.15 K, x1 = 0.4675 | 1021.75 | 1453.1
288.15 K, x1 = 0.6413 | 1064.29 | 1528
288.15 K, x1 = 0.779 | 1091.59 | 1558.4
288.15 K, x1 = 0.8537 | 1104.43 | 1597.9
288.15 K, x1 = 0.9328 | 1116.76 | 1617.3
288.15 K, x1 = 1 | 1126.19 | 1640.5
293.15 K, x1 = 0.0075 | 795.43 | 1168.3
293.15 K, x1 = 0.0184 | 804.51 | 1176.9
293.15 K, x1 = 0.0304 | 813.73 | 1185.9
293.15 K, x1 = 0.0622 | 836.37 | 1210
293.15 K, x1 = 0.1385 | 885.58 | 1262.7
293.15 K, x1 = 0.2275 | 931.77 | 1320
293.15 K, x1 = 0.335 | 976.06 | 1385
293.15 K, x1 = 0.4675 | 1018.53 | 1442.5
293.15 K, x1 = 0.6413 | 1061.37 | 1516.6
293.15 K, x1 = 0.779 | 1088.73 | 1546.8
293.15 K, x1 = 0.8537 | 1101.67 | 1585.3
293.15 K, x1 = 0.9328 | 1114.01 | 1604.6
293.15 K, x1 = 1 | 1123.42 | 1625.6
298.15 K, x1 = 0.0075 | 791.34 | 1151.4
298.15 K, x1 = 0.0184 | 800.35 | 1160.4
298.15 K, x1 = 0.0304 | 809.59 | 1170
298.15 K, x1 = 0.0622 | 832.35 | 1194.4
298.15 K, x1 = 0.1385 | 881.74 | 1248.6
298.15 K, x1 = 0.2275 | 928.14 | 1307.1
298.15 K, x1 = 0.335 | 972.67 | 1373.1
298.15 K, x1 = 0.4675 | 1015.52 | 1431.6
298.15 K, x1 = 0.6413 | 1058.61 | 1505.9
298.15 K, x1 = 0.779 | 1086.14 | 1536.4
298.15 K, x1 = 0.8537 | 1099.23 | 1574.3
298.15 K, x1 = 0.9328 | 1111.63 | 1593.8
298.15 K, x1 = 1 | 1120.99 | 1614.5
303.15 K, x1 = 0.0075 | 786.78 | 1134.6
303.15 K, x1 = 0.0184 | 796.27 | 1143.9
303.15 K, x1 = 0.0304 | 805.5 | 1153.8
303.15 K, x1 = 0.0622 | 828.41 | 1178.9
303.15 K, x1 = 0.1385 | 877.88 | 1234.5
303.15 K, x1 = 0.2275 | 924.44 | 1294.3
303.15 K, x1 = 0.335 | 969.17 | 1361.4
303.15 K, x1 = 0.4675 | 1012.27 | 1420.9
303.15 K, x1 = 0.6413 | 1055.67 | 1496
303.15 K, x1 = 0.779 | 1083.38 | 1526.6
303.15 K, x1 = 0.8537 | 1096.33 | 1564.5
303.15 K, x1 = 0.9328 | 1108.88 | 1584.2
303.15 K, x1 = 1 | 1118.21 | 1604.5
308.15 K, x1 = 0.0075 | 782.53 | 1117.9
308.15 K, x1 = 0.0184 | 791.61 | 1127.4
308.15 K, x1 = 0.0304 | 801.05 | 1137.7
308.15 K, x1 = 0.0622 | 824.11 | 1163.4
308.15 K, x1 = 0.1385 | 873.56 | 1220.4
308.15 K, x1 = 0.2275 | 920.24 | 1281.5
308.15 K, x1 = 0.335 | 965.2 | 1349.9
308.15 K, x1 = 0.4675 | 1008.69 | 1410.5
308.15 K, x1 = 0.6413 | 1052.55 | 1486.6
308.15 K, x1 = 0.779 | 1080.43 | 1517.4
308.15 K, x1 = 0.8537 | 1093.46 | 1555.6
308.15 K, x1 = 0.9328 | 1106.09 | 1575.4
308.15 K, x1 = 1 | 1115.38 | 1595.5
313.15 K, x1 = 0.0075 | 778.51 | 1101.2
313.15 K, x1 = 0.0184 | 787.72 | 1111.1
313.15 K, x1 = 0.0304 | 797.32 | 1121.6
313.15 K, x1 = 0.0622 | 820.47 | 1148
313.15 K, x1 = 0.1385 | 869.89 | 1206.4
313.15 K, x1 = 0.2275 | 916.68 | 1268.8
313.15 K, x1 = 0.335 | 961.76 | 1338.4
313.15 K, x1 = 0.4675 | 1005.44 | 1400.1
313.15 K, x1 = 0.6413 | 1049.55 | 1477.3
313.15 K, x1 = 0.779 | 1077.53 | 1508.5
313.15 K, x1 = 0.8537 | 1090.66 | 1547
313.15 K, x1 = 0.9328 | 1103.23 | 1567.1
313.15 K, x1 = 1 | 1112.57 | 1586
